The results in this text go back to US20240351988A1, “ARYL HYDROCARBON RECEPTOR MODULATORS AND THEIR USE IN THE TREATMENT OF DISEASES AND DISORDERS” (Allianthera (Suzhou) Biopharmaceutical Co., Ltd., priority 2021, published 2024).

Experiment [1] concerns the target T1, Human Aryl Hydrocarbon Receptor (AhR) (Homo sapiens, UniProt P35869).
T1 construct: purchased INDIGO Bioscience #1B06001-32; host or cells: AhR Reporter Cell (kit's proprietary reporter cells)
T1 sequence (P35869 11-848): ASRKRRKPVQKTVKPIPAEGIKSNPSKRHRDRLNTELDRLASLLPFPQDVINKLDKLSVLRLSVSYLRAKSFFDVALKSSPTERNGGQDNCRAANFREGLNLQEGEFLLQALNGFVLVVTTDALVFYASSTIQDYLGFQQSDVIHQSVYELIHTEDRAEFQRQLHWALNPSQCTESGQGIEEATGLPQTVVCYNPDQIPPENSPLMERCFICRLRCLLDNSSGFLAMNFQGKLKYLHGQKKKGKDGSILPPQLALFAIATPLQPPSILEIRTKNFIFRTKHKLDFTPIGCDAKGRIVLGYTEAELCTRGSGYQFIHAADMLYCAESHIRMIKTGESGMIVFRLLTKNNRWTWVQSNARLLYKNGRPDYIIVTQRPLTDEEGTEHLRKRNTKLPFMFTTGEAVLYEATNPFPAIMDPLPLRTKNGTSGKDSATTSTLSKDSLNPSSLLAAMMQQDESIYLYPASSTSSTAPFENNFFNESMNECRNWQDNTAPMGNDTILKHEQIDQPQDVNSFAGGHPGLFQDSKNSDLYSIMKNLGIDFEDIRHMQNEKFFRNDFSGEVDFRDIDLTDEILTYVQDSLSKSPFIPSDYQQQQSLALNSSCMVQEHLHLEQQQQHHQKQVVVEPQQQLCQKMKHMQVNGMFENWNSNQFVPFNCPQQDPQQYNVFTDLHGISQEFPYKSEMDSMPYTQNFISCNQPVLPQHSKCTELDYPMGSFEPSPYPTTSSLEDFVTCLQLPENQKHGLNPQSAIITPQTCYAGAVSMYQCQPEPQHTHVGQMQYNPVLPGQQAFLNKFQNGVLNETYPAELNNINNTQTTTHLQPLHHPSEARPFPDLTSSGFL
Kind of experiment: AHR antagonist reporter assay in human cell line (INDIGO AhR Reporter Assay System, kynurenic acid activated). The experiment is classed as cell-based. The note with it: 200 μM kynurenic acid, 24 hours, luciferase; read-out: AhR Reporter Assay KA Antagonist Mode: IC50. The method, then: The AhR reporter assay was performed following the protocol of the Human Aryl Hydrocarbon Receptor (AhR) Reporter Assay System (INDIGO Bioscience, #1B06001-32). AhR Reporter Cell was thawed and pre-incubated in Cell Recovery Medium (CRM) for 6 hours. The media was then removed and the cells were incubated with Compound Screening Medium (CSM) supplemented with 200 μM kynurenic acid for 24 hours in the absence (negative control) or presence of increasing concentrations of test compounds (typical dilution: […], 3.2 nM, 16 nM, 80 nM, 400 nM, 2 μM, 10 μM in duplicates). For positive inhibition control, cells activated with 200 μM kynurenic acid were incubated in the presence of literature AHR antagonists; alternatively un-activated cells were used as positive inhibition control. Following 24 hours incubation, the media was removed and Luciferase Detection Reagent (LDR) added. The firefly luciferase activity was quantified using a plate reader. Results were normalized by positive and negative controls.

Experiment [2] relates to AHR-regulated gene CYP1A1 in human monocytic U937 cell line. Kind of experiment: AHR-regulated CYP1A1 expression in U937 cells (qPCR, kynurenic acid stimulated). The experiment is classed as cell-based. Conditions: U-937, 200 μM KA, 16 hours, CYP1A1 vs GAPDH, read-out: Cyp ANATAG mode assay: IC50. Here is the method: To evaluate the AHR inhibitory activity of the test compounds, quantitative PCR analysis was used to determine expression level of the AHR-regulated gene CYP1A1 in a human monocytic U937 cell line upon stimulation of 200 μM kynurenic acid (KA) in the absence or presence of AHR inhibitor. U937 cells were seeded at a concentration of 5×10^5 cells/well in 200 μL of growth medium in 96-well cell culture microplates. CYP1A1 expression was induced with 200 μM KA (positive control) in the absence or presence of the test compounds for 16 hours. Human U937 cells were typically incubated with eight different concentrations of test compounds (typical dilution: […], 3.2 nM, 16 nM, 80 nM, 400 nM, 2 μM, 10 μM) and analyzed in duplicate on the same cell culture microplate. After stimulation, the media was removed, the cell RNA was isolated using RNeasy Mini Kit (Qiagen, 74104) and reverse-transcribed to cDNA using PrimeScript RT reagent Kit (Perfect Real Time) (TaKaRa, RR037A). Unstimulated cells were used as the negative control. Taqman probes for human CYP1A1 (Hs01054797_g1) and human GAPDH (Hs02786624_g1) were used to analyze fold expression of CYP1A1 of GAPDH.
On the technique in general: In qPCR the cycle at which signal appears reflects the starting amount.

Usually IC50 stands for the concentration that gives 50% inhibition. For the compound `O=C(N[C@H]1CCCCNC1=O)c1cc(-c2ccc(Cl)cc2)nn(-c2cccc(F)c2)c1=O` [28 - *stereo-pure], the IC50 in experiment [1] and in experiment [2] was < 100 nM in each case.

On to `Cn1cc(-n2nc(-c3ccc(Cl)cc3)cc(C(=O)N[C@H]3CCCCNC3=O)c2=O)cn1` [59 - *stereo-pure], for which the 50% inhibitory concentration (IC50) in experiment [1] and in experiment [2] was < 100 nM each time.

Consider `CNC(=O)C(C)NC(=O)c1cc(-c2ccc(Cl)cc2)nn(-c2cccc(F)c2)c1=O` (centres unmarked) [Compound 12], for which the concentration for half-maximal inhibition (IC50) in experiment [1] and in experiment [2] was 100 to 400 nM each time.

Turning to `CC(NC(=O)c1cc(-c2ccc(Cl)cc2)nn(-c2cccc(F)c2)c1=O)C(=O)N(C)C` (centres unmarked) [Compound 13], the figures for the IC50 in experiment [1] and in experiment [2] were < 100 nM and 100 to 400 nM, respectively.

Turning to `COCC(C)NC(=O)c1cc(-c2ccc(Cl)cc2)nn(-c2cnn(C)c2)c1=O` (centres unmarked) [Compound 32], the half-inhibitory concentration (IC50) in experiment [1] and in experiment [2] was < 100 nM each time.

On to `COC[C@H](C)NC(=O)c1cc(-c2ccc(Cl)cc2)nn(-c2cn[nH]c2)c1=O` [Compound 62], for which the IC50 in experiment [1] is 100 to 400 nM; in experiment [2] it was < 100 nM.

On to `COC[C@H](C)NC(=O)c1cc(-c2ccc(C(F)(F)F)cc2)nn(-c2cnn(C)c2)c1=O` [Compound 70], for which the IC50 in experiment [1] and in experiment [2] was < 100 nM in each case.

Turning to `COC[C@H](C)NC(=O)c1cc(-c2ccc(C(=O)N(C)C)cc2)nn(-c2cnn(C)c2)c1=O` [Compound 90], the concentration for half-maximal inhibition (IC50) in experiment [1] and in experiment [2] was < 100 nM in each case.

With `CN(C)C(=O)C(C)(C)NC(=O)c1cc(-c2ccc(Cl)cc2)nn(-c2cnn(C)c2)c1=O` [Compound 94], the IC50 in experiment [1] and in experiment [2] was < 100 nM throughout.

On to `CNC(=O)C(C)(C)NC(=O)c1cc(-c2ccc(Cl)cc2)nn(-c2cnn(C)c2)c1=O` [Compound 95], for which the half-maximal inhibitory concentration (IC50) in experiment [1] and in experiment [2] was < 100 nM each time.

Consider `COC[C@H](C)NC(=O)c1cc(-c2ccc(Cl)cc2)nn(-c2cccc(F)c2)c1=O` [Compound 97], for which the IC50 in experiment [1] and in experiment [2] was < 100 nM throughout.

`CNC(=O)[C@H](C)NC(=O)c1cc(-c2ccc(Cl)cc2)nn(-c2cccc(F)c2)c1=O` [Compound 98]: the IC50 in experiment [1] and in experiment [2] was < 100 nM in each case.

For `C[C@H](NC(=O)c1cc(-c2ccc(Cl)cc2)nn(-c2cccc(F)c2)c1=O)C(=O)N(C)C` [Compound 99], the concentration for half-maximal inhibition (IC50) in experiment [1] and in experiment [2] was < 100 nM in each case.

In the case of `CNC(=O)[C@H](C)NC(=O)c1cc(-c2ccc(Cl)cc2)nn(-c2cnn(C)c2)c1=O` [Compound 100], the IC50 in experiment [1] and in experiment [2] was < 100 nM each time.

With `COC[C@H](C)NC(=O)c1cc(-c2ccc3c(c2)OCC3)nn(-c2cnn(C)c2)c1=O` [Compound 112], the IC50 in experiment [1] is < 100 nM; in experiment [2] it was 100 to 400 nM.

With `COC[C@H](C)NC(=O)c1cc(-c2ccc3cc(OC)ccc3c2)nn(-c2cnn(C)c2)c1=O` [Compound 113], the IC50 in experiment [1] and in experiment [2] was < 100 nM in each case.

For `COC[C@H](C)NC(=O)c1cc(-c2ccc3cc(F)ccc3c2)nn(-c2cnn(C)c2)c1=O` [Compound 120], the IC50 in experiment [1] and in experiment [2] was < 100 nM each time.

Turning to `COC[C@H](C)NC(=O)c1cc(-c2ccc3c(C)nn(C)c3c2)nn(-c2cnn(C)c2)c1=O` [Compound 123], the IC50 in experiment [1] and in experiment [2] was < 100 nM each time.

On to `COC[C@H](C)NC(=O)c1cc(-c2cnc(-c3ccc(Cl)cc3)nc2)nn(-c2cnn(C)c2)c1=O` [Compound 139], for which the half-maximal inhibitory concentration (IC50) in experiment [1] and in experiment [2] was < 100 nM each time.

In the case of `C[C@H](NC(=O)c1cc(-c2ccc(OC(F)(F)F)cc2)nn(-c2cnn(C)c2)c1=O)C(=O)N(C)C` [Compound 146], the IC50 in experiment [1] and in experiment [2] was < 100 nM each time.

As to `C[C@H](NC(=O)c1cc(-c2ccc(-c3ccc(Cl)cc3)cc2)nn(-c2cnn(C)c2)c1=O)C(=O)N(C)C` [Compound 147], the half-maximal inhibitory concentration (IC50) in experiment [1] and in experiment [2] was < 100 nM in each case.

On to `C[C@@H](CO)NC(=O)c1cc(-c2ccc(-c3ccc(Cl)cc3)cc2)nn(-c2cnn(C)c2)c1=O` [Compound 148], for which the IC50 in experiment [1] and in experiment [2] was < 100 nM each time.

`C[C@H](NC(=O)c1cc(-c2ccc(C(F)(F)F)cc2)nn(-c2cnn(C)c2)c1=O)C(=O)N(C)C` [Compound 150]: the IC50 in experiment [1] and in experiment [2] was < 100 nM each time.

Turning to `COC[C@H](C)NC(=O)c1cc(-c2cc3ccccc3cn2)nn(-c2cnn(C)c2)c1=O` [Compound 153], the concentration for half-maximal inhibition (IC50) in experiment [1] and in experiment [2] was < 100 nM in each case.

With `COC[C@H](C)NC(=O)c1cc(-n2cc(-c3ccc(Cl)cc3)cn2)nn(-c2cnn(C)c2)c1=O` [Compound 155], the IC50 in experiment [1] was < 100 nM; in experiment [2], 100 to 400 nM.

On to `COC[C@H](C)NC(=O)c1cc(-c2ccc(-c3ccc(Cl)cc3)nc2)nn(-c2cnn(C)c2)c1=O` [Compound 156], for which the IC50 in experiment [1] and in experiment [2] was < 100 nM throughout.

On to `C[C@@H](CO)NC(=O)c1cc(-c2ccc(-c3ccc(Cl)cc3)nc2)nn(-c2cnn(C)c2)c1=O` [Compound 157], for which the 50% inhibitory concentration (IC50) in experiment [1] and in experiment [2] was < 100 nM in each case.

Regarding `C[C@@H](CO)NC(=O)c1cc(-n2cc(-c3ccc(Cl)cc3)cn2)nn(-c2cnn(C)c2)c1=O` [Compound 161], the IC50 in experiment [1] and in experiment [2] was < 100 nM throughout.

Regarding `C[C@@H](CO)NC(=O)c1cc(-c2cnc(-c3ccc(Cl)cc3)nc2)nn(-c2cnn(C)c2)c1=O` [Compound 163], the IC50 in experiment [1] and in experiment [2] was < 100 nM in each case.

Take `CN1CCCC[C@H](NC(=O)c2cc(-c3ccc(C(F)(F)F)cc3)nn(-c3cnn(C)c3)c2=O)C1=O` [Compound 164]: the IC50 in experiment [1] and in experiment [2] was < 100 nM throughout.

As for `CN1CCCC[C@H](NC(=O)c2cc(-c3ccc(OC(F)(F)F)cc3)nn(-c3cnn(C)c3)c2=O)C1=O` [Compound 165], the IC50 in experiment [1] and in experiment [2] was < 100 nM in each case.

As to `CN(C)C(=O)C(C)(C)NC(=O)c1cc(-c2ccc(C(F)(F)F)cc2)nn(-c2cnn(C)c2)c1=O` [Compound 167], the IC50 in experiment [1] and in experiment [2] was < 100 nM throughout.

As for `CN(C)C(=O)C(C)(C)NC(=O)c1cc(-c2ccc(OC(F)(F)F)cc2)nn(-c2cnn(C)c2)c1=O` [Compound 168], the concentration for half-maximal inhibition (IC50) in experiment [1] was < 100 nM; in experiment [2], 100 to 400 nM.

As to `CNC(=O)[C@H](C)NC(=O)c1cc(-c2ccc(C(F)(F)F)cc2)nn(-c2cnn(C)c2)c1=O` [Compound 169], the 50% inhibitory concentration (IC50) in experiment [1] and in experiment [2] was < 100 nM throughout.

As for `CNC(=O)[C@H](C)NC(=O)c1cc(-c2ccc(OC(F)(F)F)cc2)nn(-c2cnn(C)c2)c1=O` [Compound 170], the IC50 in experiment [1] and in experiment [2] was < 100 nM in each case.

As to `CNC(=O)[C@H](C)NC(=O)c1cc(-c2ccc(-c3ccc(Cl)cc3)cc2)nn(-c2cnn(C)c2)c1=O` [Compound 171], the 50% inhibitory concentration (IC50) in experiment [1] and in experiment [2] was < 100 nM each time.

For `CN1CCCC[C@H](NC(=O)c2cc(-c3ccc(C(F)(F)F)nc3)nn(-c3cnn(C)c3)c2=O)C1=O` [Compound 172], the half-inhibitory concentration (IC50) in experiment [1] and in experiment [2] was < 100 nM each time.
